Key:
[1] = tested on: Rattus norvegicus; assay: Anti-inflammatory activity in Rattus norvegicus Sprague-Dawley (rat) assessed as inhibition of carrageenan-induced paw edema at 10 mg/kg, po after 1.5 to 3 hr relative to control; assay type: functional
[2] = tested on: Rattus norvegicus; assay: Ulcerogenic activity in Rattus norvegicus Sprague-Dawley (rat) assessed as ulcer index at 10 mg/kg, po after 8 hr; assay type: toxicity, organism-based; set-up: dose 10 mg/kg, route oral; conditions: in vivo
[3] = molecular target: T1, Prostaglandin G/H synthase 1 (Ovis aries) (UniProt P05979); assay: Inhibition of Ovis aries (sheep) COX-1 assessed as appearance of oxidized N,N,N',N'-tetramethyl-p-phenylenediamine at 20 uM by colorimetric analysis
T1 sequence (whole entry): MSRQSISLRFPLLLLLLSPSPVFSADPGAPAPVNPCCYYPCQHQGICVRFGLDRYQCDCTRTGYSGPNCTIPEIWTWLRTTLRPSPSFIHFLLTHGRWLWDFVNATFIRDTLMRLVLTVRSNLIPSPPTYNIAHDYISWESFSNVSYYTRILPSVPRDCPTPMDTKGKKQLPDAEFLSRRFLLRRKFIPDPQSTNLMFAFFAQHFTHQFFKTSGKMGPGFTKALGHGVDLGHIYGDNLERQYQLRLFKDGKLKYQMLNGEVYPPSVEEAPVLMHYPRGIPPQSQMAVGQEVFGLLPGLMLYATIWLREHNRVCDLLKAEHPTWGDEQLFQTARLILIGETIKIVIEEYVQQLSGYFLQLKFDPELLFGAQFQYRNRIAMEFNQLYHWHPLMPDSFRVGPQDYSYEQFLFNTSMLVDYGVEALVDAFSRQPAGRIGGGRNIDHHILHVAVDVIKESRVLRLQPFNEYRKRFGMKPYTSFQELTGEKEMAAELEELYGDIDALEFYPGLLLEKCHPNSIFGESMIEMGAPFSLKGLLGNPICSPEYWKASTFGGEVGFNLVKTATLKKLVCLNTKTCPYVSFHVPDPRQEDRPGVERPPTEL

`COc1ccc2c(c1)c(CC(=O)Oc1c(Cl)c(Cl)c(Cl)c(Cl)c1Cl)c(C)n2C(=O)c1ccc(Cl)cc1` gave an inhibition in vivo at 10 mg/kg [1] of 0%.
Compound `CCCCOC(=O)c1ccc(OC(=O)Cc2c(C)n(C(=O)c3ccc(Cl)cc3)c3ccc(OC)cc23)cc1` has an inhibition in vivo at 10 mg/kg [1] of 7.83%.
`COc1ccc2c(c1)c(CC(=O)O)c(C)n2C(=O)c1ccc(Cl)cc1` [INDOMETHACIN] showed an inhibition in vivo at 10 mg/kg [1] of 13.9% and a UI [2] of 50.
`COc1ccc2c(c1)c(CC(=O)OCCN1CCCCC1)c(C)n2C(=O)c1ccc(Cl)cc1` gave an inhibition in vivo at 10 mg/kg [1] of 7.23%.
`COc1ccc2c(c1)c(CC(=O)OCc1ccccc1)c(C)n2C(=O)c1ccc(Cl)cc1` showed an inhibition in vivo at 10 mg/kg [1] of 3.61%.
In the case of `COc1ccc2c(c1)c(CC(=O)Oc1ccc([N+](=O)[O-])cc1)c(C)n2C(=O)c1ccc(Cl)cc1`, the inhibition in vivo at 10 mg/kg [1] is reported as 4.81%.
`COc1ccc2c(c1)c(CC(=O)OCCc1c(C)cc(C)cc1C)c(C)n2C(=O)c1ccc(Cl)cc1` was tested, and the inhibition in vivo at 10 mg/kg [1] was 9.04%.
`CCOC(=O)c1ccc(OC(=O)Cc2c(C)n(C(=O)c3ccc(Cl)cc3)c3ccc(OC)cc23)cc1` was tested, and the inhibition [3] was 12.9%, the inhibition in vivo at 10 mg/kg [1] was 19.9% and the UI [2] was 0.
`COc1ccc2c(c1)c(CC(=O)OCc1ccoc1)c(C)n2C(=O)c1ccc(Cl)cc1` was tested, and the inhibition in vivo at 10 mg/kg [1] was 0%.
`COc1ccc2c(c1)c(CC(=O)OCCN1CCNCC1)c(C)n2C(=O)c1ccc(Cl)cc1` gave an inhibition in vivo at 10 mg/kg [1] of 0%.
`COc1ccc2c(c1)c(CC(=O)Oc1ccc(Cl)cc1)c(C)n2C(=O)c1ccc(Cl)cc1` showed an inhibition in vivo at 10 mg/kg [1] of 0%.
Compound `CCc1ccc(OC(=O)Cc2c(C)n(C(=O)c3ccc(Cl)cc3)c3ccc(OC)cc23)cc1` has an inhibition in vivo at 10 mg/kg [1] of 2.41%.
